Consider twelve molecules from PubChem BioAssay (NCI).

What all share (assay): DTP human tumour cell line panel, 48 h
Assay [1] concerns NCI-H522 lung.
Assay [2] deals with PC-3 prostate.
The subject of assay [3] is HCT-116 colon.
Assay [4] has as its system SNB-19 CNS.
The subject of assay [5] is A498 renal.
Assay [6] deals with HL-60(TB) leukemia.
The subject of assay [7] is SF-268 CNS.
Assay [8] relates to KM12 colon.

Each structure is given as a SMILES string.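 A five-concentration, 48-hour dose response in 96-well plates underlies each endpoint, interpolated linearly between surrounding concentrations. Here, GI50 denotes the concentration required for 50% inhibition of growth. TGI is the concentration that stops growth completely.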 Some results are limits rather than exact numbers.

The term GI50 denotes the concentration at which growth is held to half of that of the control. Broadly, the TGI is the concentration giving total growth inhibition. For the molecule `O=C(CCN1CCCC1)Nc1ccc2c(Nc3ccc(F)cc3)c3ccccc3nc2c1`, the GI50 in assay [1] is 1.31 µM; in assay [2], 1.34 µM; in assay [3], 0.906 µM; in assay [4] it was 0.836 µM; in assay [5] it was 1.03 µM; in assay [6] it was 1.51 µM. For the same molecule, the figures for the GI50 in assay [7] and in assay [8] were 1.19 µM and 1.48 µM, respectively. Besides, the TGI in assay [1] came out at 3.25 µM; in assay [2] it was 3.97 µM; in assay [3], 2.58 µM; in assay [4], 3.53 µM; in assay [5], 4.89 µM; in assay [6] it was 3.75 µM. The TGI in assay [7] was 2.82 µM; in assay [8] it was 4.11 µM.

Take `COc1ccc(Cn2cc3c(c2-c2ccccc2)CCc2cnoc2-3)cc1`: the GI50 in assay [1] is 0.0327 µM; in assay [2], 0.096 µM; in assay [3], 0.0904 µM; in assay [4], 0.351 µM; in assay [5] it was 0.209 µM; in assay [6], 0.133 µM. In addition, the GI50 in assay [7] is 0.488 µM; in assay [8] it was 0.103 µM. The TGI in assay [1] was 1.15 µM; in assay [2], above 100 µM; in assay [4] it was above 100 µM; in assay [5] it was above 95.5 µM; in assay [6], 0.389 µM; in assay [7], above 100 µM. In assay [8], this molecule yielded a TGI of 2.97 µM.

As for `CNC(=O)[C@H](Cc1c[nH]c2ccccc12)NC(=O)[C@@H](CC(=O)NO)CC(C)C`, the GI50 in assay [1], in assay [2], in assay [3], in assay [4], in assay [5] and in assay [7] was above 25 µM throughout. For the same molecule, the GI50 in assay [8] was above 25 µM. For the same molecule, the total growth inhibition concentration (TGI) in assay [1], in assay [2], in assay [3], in assay [4], in assay [5] and in assay [7] was above 25 µM in each case. In assay [8], this molecule gave a TGI above 25 µM.

As for `O=C1c2ccccc2C(=O)N1c1ccc(Cc2ccc(N3C(=O)c4ccccc4C3=O)cc2)cc1`, the TGI in assay [1], in assay [2], in assay [3], in assay [4], in assay [5] and in assay [7] was above 100 µM throughout. The TGI in assay [8] was above 100 µM.

With `COc1ccc(-c2nc(NC(=O)CS(=O)(=O)c3ccc(F)cc3)sc2C)cc1`, the GI50 in assay [2] was 21.1 µM; in assay [3], 17.5 µM; in assay [4] it was 33.4 µM; in assay [5] it was 11.6 µM; in assay [6], 16.5 µM; in assay [7], 28.7 µM. Further, the GI50 in assay [8] was 14.6 µM. The TGI in assay [2] is 94.7 µM; in assay [3] it was 38.7 µM; in assay [4] it was above 100 µM; in assay [5] it was 32.8 µM; in assay [6], 66 µM; in assay [7], above 100 µM. In assay [8], this molecule gave a total growth inhibition concentration (TGI) of 61 µM.

Consider `N#CC1=C(N)NC(=O)C(C#N)C12Nc1ccccc1S2` (stereo unspecified), for which the GI50 in assay [1] was 19.1 µM; in assay [2], 60.4 µM; in assay [3], 59.4 µM; in assay [4] it was 90.5 µM; in assay [6], 91.6 µM; in assay [7], above 100 µM. The GI50 in assay [8] is 82 µM. The TGI in assay [1] was 60.5 µM; in assay [2], above 100 µM; in assay [3], above 100 µM; in assay [4], above 100 µM; in assay [6], above 100 µM; in assay [7], above 100 µM. In assay [8], the TGI was above 100 µM.

Turning to `CC(C)(C)OC(=O)N(CCCCN(CCCn1c2c(c3ccccc3c1=O)C(=O)c1ccccc1-2)C(=O)OC(C)(C)C)CCCn1c2c(c3ccccc3c1=O)C(=O)c1ccccc1-2`, the GI50 in assay [1] is 26.2 µM; in assay [2], 27.7 µM; in assay [3], 1.9 µM; in assay [4] it was 72 µM; in assay [6], above 100 µM; in assay [7], 58.5 µM. Moreover, the GI50 in assay [8] was 79.6 µM. Moreover, the concentration for total growth inhibition (TGI) in assay [1], in assay [2], in assay [3], in assay [4], in assay [6] and in assay [7] was above 100 µM in each case. This molecule came in with a TGI in assay [8] above 100 µM.

Consider `CC(C)(C)OC(=O)NCCCCCCCCCn1c2c(c3ccccc3c1=O)C(=O)c1ccccc1-2`, for which the GI50 in assay [1] was 44.9 µM; in assay [2] it was above 100 µM; in assay [4] it was 28.2 µM; in assay [6] it was above 100 µM; in assay [7] it was 32.6 µM; in assay [8] it was above 100 µM. Further, the TGI in assay [1], in assay [2], in assay [4], in assay [6], in assay [7] and in assay [8] was above 100 µM each time.

Take `COC(=O)c1csc(-c2csc(CCNC(=O)OC(C)(C)C)n2)n1`: the TGI is above 100 µM in assay [2]; above 100 µM in assay [3]; above 100 µM in assay [4]; 99 µM in assay [5]; above 100 µM in assay [6]; above 100 µM in assay [7]. The TGI in assay [8] is above 100 µM.

For the molecule `O=[N+]([O-])c1ccc(Sc2cccc[n+]2[O-])c2nonc12`, the GI50 in assay [1] was 1.78 µM; in assay [2], 2.6 µM; in assay [3], 1.4 µM; in assay [4], 17.1 µM; in assay [5], 4.88 µM; in assay [7] it was 5.27 µM. The GI50 in assay [8] is 4.02 µM. Moreover, the TGI in assay [1] is 3.79 µM; in assay [2], 13 µM; in assay [3], 12.5 µM; in assay [4] it was above 100 µM; in assay [5] it was 91.9 µM; in assay [7], 21.1 µM. In assay [8], this molecule gave a concentration for total growth inhibition (TGI) of 14.4 µM.

For `C=C1C(=O)OC2CC1C(OC(=O)/C=C/c1ccccc1)C/C(C)=C/CC/C(C)=C/CCC2(C)O` (stereo unspecified), the concentration for total growth inhibition (TGI) in assay [1] was found to be 1.63 µM; in assay [2], 3.22 µM; in assay [3] it was 2.38 µM; in assay [4], 3.51 µM; in assay [5], 3.68 µM; in assay [7], 3.81 µM. The same molecule yielded a TGI in assay [8] of 3.41 µM.

For the molecule `O=S(=O)(F)Cc1ccccc1`, the TGI in assay [1], in assay [2], in assay [3], in assay [4], in assay [5] and in assay [7] was above 100 µM in each case. In addition, the TGI in assay [8] is above 100 µM.
